From the supplement of paper PMC11451515

How the values were obtained:
Settings in all cases: 48 h
NOMO1 [1] = assay: cell viability relative to DMSO control; higher = less cytotoxic
Summary of the method: (§1)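 NOMO1 or SEM cells were plated at 500 cells/well and P12-Ichikawa cells at 1000 cells/well in 1536-well plates (5 μl), after each leukemia line had been adapted for at least four passages in each medium. Pin dosing delivered library compounds in DMSO at 11 threefold concentrations, 47 μM to 0.79 nM. CellTiter-Glo One luminescence was read after 48 h at 37°C. Viability is reported as a per-plate percentage of DMSO wells, with cell-free wells as background.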

P12-Ichikawa [2] = assay: as above
Summary of the method: as §1

SEM cells [3] = assay: as above
Summary of the method: as §1

NOMO1 [4] = assay: AUC of viability dose-response curve (% viability x log10 dose units); higher = less sensitive
Summary of the method: (§2)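 Medium-adapted leukemia cells in 1536-well plates, at 500 or 1000 cells/well, were incubated for 48 h at 37°C with library compounds in DMSO at 11 threefold doses from 47 μM to 0.79 nM. CellTiter-Glo One luminescence normalised per plate to DMSO and cell-free wells was fitted with a four-parameter log-logistic model over log10 doses. Area under the curve was integrated from this fit by trapezoidal rule, with curves beyond full viability scaled and failed quality-control curves removed.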

P12-Ichikawa [5] = assay: as above
Summary of the method: as §2

SEM cells [6] = assay: as above
Summary of the method: as §2

COc1cc(N[S+](=O)([O-])c2ccc(N)cc2)nc(OC)n1
cell viability [%]
Settings	NOMO1 [1]	P12-Ichikawa [2]	SEM cells [3]
HPLM + 10% dialyzed FBS, 0.000781 µM	102	114	71.9
HPLM + 10% dialyzed FBS, 0.00234 µM	106	111	78.4
HPLM + 10% dialyzed FBS, 0.00702 µM	111	116	85.6
HPLM + 10% dialyzed FBS, 0.0211 µM	116	112	83
HPLM + 10% dialyzed FBS, 0.0632 µM	109	125	86.4
HPLM + 10% dialyzed FBS, 0.19 µM	92.5	115	85.5
HPLM + 10% dialyzed FBS, 0.569 µM	114	112	81.7
HPLM + 10% dialyzed FBS, 1.71 µM	112	109	82.6
HPLM + 10% dialyzed FBS, 5.12 µM	99.3	110	76.5
HPLM + 10% dialyzed FBS, 15.4 µM	132	110	74.6
HPLM + 10% dialyzed FBS, 46.1 µM	109	107	66.4
RPMI 5 mM glucose + 10% FBS, 0.000781 µM	107	102	76.1
RPMI 5 mM glucose + 10% FBS, 0.00234 µM	106	106	102
RPMI 5 mM glucose + 10% FBS, 0.00702 µM	116	109	90.6
RPMI 5 mM glucose + 10% FBS, 0.0211 µM	111	110	83.4
RPMI 5 mM glucose + 10% FBS, 0.0632 µM	124	107	102
RPMI 5 mM glucose + 10% FBS, 0.19 µM	111	110	108
RPMI 5 mM glucose + 10% FBS, 0.569 µM	112	110	108
RPMI 5 mM glucose + 10% FBS, 1.71 µM	103	110	96.9
RPMI 5 mM glucose + 10% FBS, 5.12 µM	96.3	105	84.5
RPMI 5 mM glucose + 10% FBS, 15.4 µM	111	95.8	111
RPMI 5 mM glucose + 10% FBS, 46.1 µM	120	103	106
RPMI 5 mM glucose + 10% dialyzed FBS, 0.000781 µM	105	112	92.8
RPMI 5 mM glucose + 10% dialyzed FBS, 0.00234 µM	91.9	108	91.3
RPMI 5 mM glucose + 10% dialyzed FBS, 0.00702 µM	104	114	99.7
RPMI 5 mM glucose + 10% dialyzed FBS, 0.0211 µM	103	106	98.8
RPMI 5 mM glucose + 10% dialyzed FBS, 0.0632 µM	102	117	118
RPMI 5 mM glucose + 10% dialyzed FBS, 0.19 µM	115	113	101
RPMI 5 mM glucose + 10% dialyzed FBS, 0.569 µM	110	117	92.7
RPMI 5 mM glucose + 10% dialyzed FBS, 1.71 µM	99.9	117	95.3
RPMI 5 mM glucose + 10% dialyzed FBS, 5.12 µM	94	104	98.9
RPMI 5 mM glucose + 10% dialyzed FBS, 15.4 µM	116	103	101
RPMI 5 mM glucose + 10% dialyzed FBS, 46.1 µM	111	101	101

AUC of viability dose-response curve
Settings	HPLM + 10% dialyzed FBS	RPMI 5 mM glucose + 10% FBS	RPMI 5 mM glucose + 10% dialyzed FBS
NOMO1 [4]	431	476	458
P12-Ichikawa [5]	462	470	466

O=C1CC[C@@]2(O)[C@H]3Cc4ccc(O)c5c4[C@@]2(CCN3CC2CC2)[C@H]1O5
AUC of viability dose-response curve
Settings	NOMO1 [4]	P12-Ichikawa [5]	SEM cells [6]
HPLM + 10% dialyzed FBS	419	459	469
RPMI 5 mM glucose + 10% FBS	411	474	451
RPMI 5 mM glucose + 10% dialyzed FBS	434	469	463
